Measured values: patent publication US8608967B2, “Multiple stationary phase matrix and uses thereof” (The Board of Trustees of the University of Arkansas, priority 2011, dated 2013)

Test: Dual-phase UHPLC-MS/MS profiling of warfarin and hydroxywarfarins in plasma of patients receiving warfarin
Conditions: four plasma samples of patients receiving warfarin
Method: Human plasma samples were processed as described previously (Wikoff et al., Proc Natl Acad Sci, 2009, 106:3698). […] Following equilibration, ice cold 0.2% formic acid in H2O (190 μL) was added to each sample, followed by ice cold 0.2% formic acid in acetonitrile (1000 μL). Samples were allowed to precipitate at 4° C. for 30 minutes, followed by centrifugation (10 min at 16,000 g) in a microcentrifuge. The supernatant (1000 μL) was then transferred to a new vial and dried down in a speed vacuum concentrator. Plasma extracts were resolubilized (40 μL) in mobile phase (55% methanol, 45% H2O with 0.01% formic acid) maintaining a 1:1 ratio with the original volume of plasma.
Standard curves containing all hydroxywarfarins and deuterated internal standards were prepared in potassium phosphate (50 mM, pH 7.4) and analyzed in triplicate with the assay conditions described above. […] The limit of quantification (LOQ) was defined as 5 times the LOD. Metabolite concentrations calculated to be below the limit of quantification were reported as LOQ.
All samples were from males and are referred to as M61, […], […], and M80, respectively. Plasma samples were extracted as described above, and analyzed independently on three separate days.

Row | Compound | presence of metabolite in human plasma (in words)
1 | CC(=O)C(O)[C@H](c1ccccc1)c1c(O)c2ccccc2oc1=O (single isomer, unassigned) [R10b] | major observed metabolites
2 | CC(=O)C(O)[C@H](c1ccccc1)c1c(O)c2ccccc2oc1=O (single isomer, unassigned) [R10a] | major observed metabolites
3 | CC(=O)C(O)[C@@H](c1ccccc1)c1c(O)c2ccccc2oc1=O (stereo partly drawn) [S10a] | detected but below the limit of quantitation
4 | CC(=O)CC(c1ccc(O)cc1)c1c(O)c2ccccc2oc1=O (stereo not drawn) [4″-hydroxywarfarin] | observed in some samples, but was below the limit of quantitation
5 | CC(=O)C[C@@H](c1ccccc1)c1c(O)c2ccc(O)cc2oc1=O [S7, S-7-hydroxywarfarin] | major observed metabolites
6 | CC(=O)C[C@H](c1ccccc1)c1c(O)c2ccc(O)cc2oc1=O [R7, R-7-hydroxywarfarin] | observed in all four plasma samples
7 | CC(=O)CC(c1ccccc1)c1c(O)c2cccc(O)c2oc1=O (stereo not drawn) [8-hydroxywarfarin] | below the limit of detection

Same assay, conditions: patients M61 and M75; 10-hydroxywarfarin derived from both R and S-warfarin

Row | Compound | total plasma concentration compared with S-7-hydroxywarfarin
8 | CC(=O)C(O)C(c1ccccc1)c1c(O)c2ccccc2oc1=O (stereo not drawn) [10-hydroxywarfarin] | higher than S-7-hydroxywarfarin concentrations

Same assay, conditions: patients M76 and M80

Row | Compound | most abundant metabolite in plasma
9 | CC(=O)C[C@@H](c1ccccc1)c1c(O)c2ccc(O)cc2oc1=O [S7, S-7-hydroxywarfarin] | the most abundant metabolite
